Laboratory results reported in patent publication US20060173171A1, “Techniques and compositions for diagnosis and treatment of cancer (muci)” (priority 2003, published 2006).

Test system: ligands in breast tumor cell lysates
Assay: Ligand fishing from cell lysates with PSMGFR peptide on NTA-Ni beads, silver-stained gel
Assay type: binding, human
Protocol: In an effort to identify ligands to the MUC1 receptor, synthetic, His-var-PSMGFR peptides, […] (SEQ ID NO: 2), which is representative of the portion of the MUC1 receptor, that remains attached to the cell surface after cleavage of the interchain binding region, were loaded onto NTA-Ni beads (cat. #1000630; available from Qiagen GmbH, Germany) and incubated with cell lysates in the presence (FIG. 9) or absence (FIG. 10) of the protease inhibitor PMSF (phenyl methyl sulfonyl fluoride). Lysates from T47D cells were used because this breast tumor cell line is known to overexpress MUC1 and MUC1 ligand(s). T47D cells were cultured then sonicated for 1 minute to lyse the cells. Lysates were mixed with the PSMGFR peptide-presenting beads and incubated on ice with intermittent mixing for 1 hr. As a negative control, an irrelevant peptide, HHHHHHGEFTGTYITAVT (SEQ ID NO: 13), was attached to NTA-Ni beads and treated identically. Both sets of beads were washed 2× with phosphate buffer pH 7.4. Bound protein species were eluted by 3 additions of 100 uL of phosphate buffer that also contained 250 mM imidazole. For both the peptides, a portion of the first elution was removed and reserved to run as a separate sample, while the remainder was combined with the other 2 elutions and concentrated by TCA (tri-chloro acetic acid)-precipitation (Chen, L. et al., Anal. Biochem. Vol 269; pgs 179-188; 1999). […]

GTINVHDVETQFNQYKTEAASPYNLTISDVSVSDVPFPFSAQSGAHHHHHH [PSMGFR peptide]
protein species bound from T47D lysate (in the absence of PMSF, FIG. 10): bound distinguishably to one peptide
protein species bound from T47D lysate (in the presence of PMSF, FIG. 9): bound distinguishably to three peptides
